Laboratory results: patent US8778882B2, “Agent for strengthening calcium containing tissue and use thereof” (Hayashibara Co., Ltd., priority 2002, dated 2014)

Tests used:
[1] = system: mouse pre-osteoblastic cell MC3T3-E1; assay: Alkaline phosphatase activity in mouse pre-osteoblastic cells; assay type: cell-based; conditions: for activity at 20 µM: Mus musculus; for alkaline phosphatase activity in vitro: glycosides
Experimental: To increase number of osteoblastic cells having calcium-deposition activity is important for increasing bone mass. […] The activity is at low level in pre-osteoblastic cells and at high level in osteoblastic cells differentiated form the pre-osteoblastic cells. […] Since final ethanol concentration in the medium is 0.2% (v/v), α-MEM medium containing 0.2% (v/v) ethanol was prepared as a negative control. The cells were inoculated for eight days as changing the medium therewith to fresh medium with or without each sample per three days. Alkaline phosphatase activity was measured using “Alkaline Phospha B-Test Wako” (commercialized by Wako Pure Chemical Industries, Osaka, Japan) according with Kajii et al (Archives of Oral Biology, Vol. 44, pp. 233-241, (1999)). Briefly, to the above described mouse pre-osteoblastic cells washed with 1 ml of 0.25 M sucrose solution three times after removing the medium were added 0.45 ml of 50 mM carbonate salt buffer (pH9.8) containing 1 mM magnesium chloride and 50 mM sucrose and 0.05 ml of 3.4 mM disodium p-nitrophenyl phosphate in due course. The mixture was incubated at 25° C. for five minutes and admixed with 1.5 ml of 0.6N sodium hydroxide as a reaction terminator. Absorbance 405 nm of p-nitrophenol generated by alkaline phosphatase in the resulting mixture was measured, and the obtained values were used as values as alkaline phosphatase activity. […] The experiment was performed by the method according to Experiment 1 except that culture day in the medium containing each sample was three, six or nine, and concentration of each sample was 5, 10 or 20 μM. […] As a negative control, mediums containing ethanol in the above concentration were prepared for calculating relative activity to the activity of each control.

[2] = system: mouse pre-osteoblastic cell MC3T3-E1; assay: Calcium deposition amount by Calcium C Test Wako; assay type: cell-based; conditions: for activity at 20 µM: Mus musculus, MC3T3-E1; for activity at 20 µM / Relative Calcium Deposition Amount (%): flavonoid comparison, Calcium C Test Wako, relative to 0.2% (v/v) ethanol negative control; for calcium deposition in vitro: glycosides
Description: Other flavonoid compounds than kaempferol or hesperetin were investigated where they have the same effect or not. Flavone (commercialized by Kanto Kagaku, Tokyo, Japan), apigenin (commercialized by Funakoshi, Co., Ltd., Tokyo, Japan), flavonol (commercialized by Tokyo Kasei Kogyo, Co., Ltd., Tokyo, Japan), quercetin (commercialized by Kanto Kagaku, Tokyo, Japan), kaempferol (commercialized by Funakoshi, Co., Ltd., Tokyo, Japan), rutin (commercialized by Kanto Kagaku, Tokyo, Japan), flavanone (commercialized by Kanto Kagaku, Tokyo, Japan), naringenin (commercialized by Ardrich Corporation), hesperetin (commercialized by Funakoshi, Co., Ltd., Tokyo, Japan), hesperidin (commercialized by Kanto Kagaku, Tokyo, Japan), chalcone (commercialized by Merk Corporation), fuloretin (commercialized by Sigma Corporation), catechin (commercialized by Sigma Corporation), ipriflavone (commercialized by Daito Corporation, Toyama, Japan), taxifolin (commercialized by Funakoshi, Co., Ltd., Tokyo, Japan), sulfuretin (commercialized by Funakoshi, Co., Ltd.; Tokyo, Japan), or cyanidin (commercialized by Funakoshi, Co., Ltd., Tokyo, Japan) was selected as test samples. Alkaline phosphatase activity was measured by the method of Experiment 1. Calcium deposition was measured by usual method using “Calcium C Test Wako” (commercialized by Wako Pure Chemical Industries, Osaka, Japan), briefly, cultured cells were washed with 1 ml of Dulbecco phosphate buffer saline three times after removing the medium. To the resultant was added 0.5 ml of 2N hydrochloric acid to resolve deposited calcium. To 5 μl of the resultant solution were added 0.5 ml of 0.88M monoethanolamine buffer (pH11) and 0.05 ml of 0.63 mM o-cresolphthalein complexone solution (binding to calcium ion to form chelate complex) containing 69 mM 8-quinolinol and mixed. Calcium amount per one hole of the plate was calculated by measuring absorbance 570 nm of the resultants and standardizing with a standard calcium solution. The judgement of alkaline phosphatase activity or calcium deposition amount of each sample was to calculate the relative activity or the relative calcium deposition amount to the negative control (only medium containing 0.2% (v/v) ethanol) and to compare each other.
The enhancement of calcium deposition between kaempferol and ipripfavone were compared. Test samples and their adding manner were same as Experiment 4. Calcium deposition amount was measured by usual method using “Calcium C Test Wako” (commercialized by Wako Pure Chemical Industries, Osaka, Japan); briefly, cultured cells were washed with 1 ml of Dulbecco phosphate buffer saline three times after removing the medium. To the resultant was added 0.5 ml of 2N hydrochloric acid to resolve deposited calcium. To 5 μl of the resolving solution were added 0.5 ml of 0.88M monoethanolamine buffer (pH11) and 0.05 ml of 0.63 mM o-cresolphthalein complexone solution (binding to calcium ion to form chelate complex) containing 69 mM 8-quinolinol and mixed, Calcium amount per one hole of the plate was calculated by measuring absorbance 570 nm of the resultants and standardizing with a standard calcium solution.
Kaempferol or hesperetin in combination with ipriflavone, or a kind of isoflavones, was investigated whether to enhance calcium deposition or not. Methods for preparing samples and culturing the cells were the same method described in Experiment 1 except culturing the cells for five days, Method for measuring calcium was the same method described in Experiment 3 and 5. Final ethanol concentration of the medium containing each sample was adjusted as same concentration.

Rat Femur and Tibia = assay: Enhancing calcium deposition in rat femur and tibia; assay type: in vivo; conditions: for Calcium Content Per One Dried Bone / Dried Bone Mass: rats fed sample in high sucrose feeding stuff for eight weeks; for calcium deposition in femur and tibia: rats, eight weeks feeding
Experimental: The experiment was performed using six three-weeks-aged female Wister rats per one group. The rats were fed with high sucrose feeding stuff containing ingredients listed Table 11 (In the Table, each value means “weight %”.) and one part by weight of each test sample; hesperetin (commercialized by Funakoshi, Co., Ltd., Tokyo, Japan), quercetin (commercialized by Tokyo Kasei Kogyo, Co., Ltd., Tokyo, Japan), α-glycosyl hesperidin (product name “αG HESPERIDINE”, commercialized by Hayashibara Shoji Inc., Okayama, Japan), α-glycosyl rutin (product name “αG RUTIN P”, commercialized by Hayashibara Shoji Inc., Okayama, Japan), or ipriflavone (commercialized by Daito Corporation, Toyama, Japan) (positive control). As a negative control, rats fed with feedstuff containing one part by weight of sucrose replacing test sample were prepared. The rats were allowed to freely take water. The rats were killed after eight weeks, and then, their femurs and tibias were excised. Each femur or tibia dried at 100° C. for about six hours was measured by electric even balance for high precision analysis (product name “HA180M/12QM”, commercialized by A & D Co, Ltd., Tokyo, Japan), and then, each bone was placed into a crucible and burned in an incinerator at 950° C. for six hours. The cinerary resultant was resolved in hydrochloric solution and provided for measuring calcium amount by atomic absorption photometer. Calcium amount per one dried bone was calculated and compared each other.

[3] = MC3T3-E1, flavonoid comparison, method of Experiment 1, relative to 0.2% (v/v) ethanol negative control
[4] = flavonoid comparison, method of Experiment 1, relative to 0.2% (v/v) ethanol negative control
[5] = MC3T3-E1, 20 mM each compound (so in the source), eight days, relative to 0.2% (v/v) ethanol negative control
[6] = 192 h, MC3T3-E1, 20 mM each compound (so in the source), eight days, relative to 0.2% (v/v) ethanol negative control

O=C(/C=C/c1ccccc1)c1ccccc1 [Chalcone]
activity at 20 µM [1, 3]: 105% | activity at 20 µM [2]: 104%

O=C1CC(c2ccccc2)Oc2ccccc21 (stereo not drawn) [Flavanone]
activity at 20 µM [1, 3]: 109% | activity at 20 µM [2]: 311%

O=C1/C(=C/c2ccc(O)c(O)c2)Oc2cc(O)ccc21 [Sulfuretin]
Relative Alkaline Phosphatase Activity (%) [1, 4]: 126% | Relative Calcium Deposition Amount (%) [2]: 157%

CC1(C)[C@@H](O[C@H]2O[C@H](C(=O)O)[C@@H](O)[C@H](O)[C@H]2O[C@@H]2O[C@H](C(=O)O)[C@@H](O)[C@H](O)[C@H]2O)CC[C@]2(C)[C@H]3C(=O)C=C4[C@@H]5C[C@@](C)(C(=O)O)CC[C@]5(C)CC[C@@]4(C)[C@]3(C)CC[C@@H]12 [Glycyrrizinic Acid]
Relative Alkaline Phosphatase Activity (%) [1, 5]: 97%

Oc1cc(O)c2cc(O)c(-c3ccc(O)c(O)c3)[o+]c2c1 [Cyanidin]
Relative Alkaline Phosphatase Activity (%) [1, 4]: 115% | Relative Calcium Deposition Amount (%) [2]: 216%

O=c1cc(-c2ccc(O)cc2)oc2cc(O)cc(O)c12 [Apigenin]
activity at 20 µM [1, 3]: 128% | activity at 20 µM [2]: 247%

Phloretin
Relative Alkaline Phosphatase Activity (%) [1, 4]: 109% | Relative Calcium Deposition Amount (%) [2]: 238%

O=C1c2c(O)cc(O)cc2O[C@H](c2ccc(O)c(O)c2)[C@H]1O [Taxifolin]
activity at 20 µM [1, 3]: 98% | activity at 20 µM [2]: 234%

C[C@@H]1O[C@@H](OC[C@H]2O[C@@H](Oc3c(-c4ccc(O)c(O)c4)oc4cc(O)cc(O)c4c3=O)[C@H](O)[C@@H](O)[C@@H]2O)[C@H](O)[C@H](O)[C@H]1O [Rutin]
Relative Alkaline Phosphatase Activity (%) [1, 4]: 109% | Relative Calcium Deposition Amount (%) [2]: 74%

O.Oc1cc(O)c2c(c1)O[C@H](c1ccc(O)c(O)c1)[C@@H](O)C2 [Catechin]
Relative Alkaline Phosphatase Activity (%) [1, 4]: 118% | Relative Calcium Deposition Amount (%) [2]: 247%

Cn1c(=O)c2c(ncn2C)n(C)c1=O [Caffein, caffein]
activity at 20 µM [1, 6]: 100%

CC1CCC(C(C)C)C(O)C1 (stereo not drawn) [Menthol, menthol]
activity at 20 µM [1, 6]: 95%

tocopherol
Relative Alkaline Phosphatase Activity (%) [1, 5]: 100%

CC(C)Oc1ccc2c(=O)c(-c3ccccc3)coc2c1 [Ipriflavone, reference compound]
Relative Alkaline Phosphatase Activity (%) [1, 4]: 114% | Calcium Content Per One Dried Bone (Rat Femur and Tibia; Femur): 120.0 mg | Dried Bone Mass (Rat Femur and Tibia; Femur): 0.428 g | Calcium Content Per One Dried Bone (Rat Femur and Tibia; Tibia): 106.0 mg | Dried Bone Mass (Rat Femur and Tibia; Tibia): 0.338 g | Relative Calcium Deposition Amount (%) [2]: 263%

O=c1c(O)c(-c2ccc(O)c(O)c2)oc2cc(O)cc(O)c12 [Quercetin]
activity at 20 µM [1, 3]: 120% | Calcium Content Per One Dried Bone (Rat Femur and Tibia; Femur): 120.3 mg | Dried Bone Mass (Rat Femur and Tibia; Femur): 0.456 g | Calcium Content Per One Dried Bone (Rat Femur and Tibia; Tibia): 108.7 mg | Dried Bone Mass (Rat Femur and Tibia; Tibia): 0.352 g | activity at 20 µM [2]: 118%

α-glycosyl hesperidin
alkaline phosphatase activity in vitro [1]: did not demonstrate | Calcium Content Per One Dried Bone (Rat Femur and Tibia; Femur): 126.9 mg | Dried Bone Mass (Rat Femur and Tibia; Femur): 0.454 g | Calcium Content Per One Dried Bone (Rat Femur and Tibia; Tibia): 109.5 mg | Dried Bone Mass (Rat Femur and Tibia; Tibia): 0.349 g | calcium deposition in femur and tibia (Rat Femur and Tibia): increase of calcium deposition content | calcium deposition in vitro [2]: did not demonstrate

α-glycosyl rutin
alkaline phosphatase activity in vitro [1]: did not demonstrate | Calcium Content Per One Dried Bone (Rat Femur and Tibia; Femur): 119.9 mg | Dried Bone Mass (Rat Femur and Tibia; Femur): 0.439 g | Calcium Content Per One Dried Bone (Rat Femur and Tibia; Tibia): 107.7 mg | Dried Bone Mass (Rat Femur and Tibia; Tibia): 0.343 g | calcium deposition in femur and tibia (Rat Femur and Tibia): increase of calcium deposition content | calcium deposition in vitro [2]: did not demonstrate

COc1ccc([C@@H]2CC(=O)c3c(O)cc(O[C@@H]4O[C@H](CO[C@@H]5O[C@@H](C)[C@H](O)[C@@H](O)[C@H]5O)[C@@H](O)[C@H](O)[C@H]4O)cc3O2)cc1O [Hesperidin]
enhancement of alkaline phosphatase activity, daily course (FIG. 1) ([1]; 5, 10 or 20 μM, culture day three, six or nine, relative to ethanol control): remarkable enhancement of alkaline phosphatase activity at third day | Relative Alkaline Phosphatase Activity (%) [1, 4]: 107% | alkaline phosphatase activity in vitro [1]: did not demonstrate | calcium deposition in femur and tibia (Rat Femur and Tibia): increase of calcium deposition content | Relative Calcium Deposition Amount (%) [2]: 118% | calcium deposition in vitro [2]: did not demonstrate

O=c1c(O)c(-c2ccccc2)oc2ccccc12 [Flavonol]
activity at 20 µM [1, 3]: 139% | activity at 20 µM [2]: 295%

Cc1cc(=O)oc2cc(O)ccc12 [4-Methylumbelliferone]
Relative Alkaline Phosphatase Activity (%) [1, 5]: 96%

O=C1C[C@@H](c2ccc(O)cc2)Oc2cc(O)cc(O)c21 [Naringenin]
activity at 20 µM [1, 3]: 110% | activity at 20 µM [2]: 271%

CC1=C(/C=C/C(C)=C/C=C/C(C)=C/C=C/C=C(C)/C=C/C=C(C)/C=C/C2=C(C)CCCC2(C)C)C(C)(C)CCC1 [β-Carotene, β-carotene]
activity at 20 µM [1, 6]: 81%

O=c1cc(-c2ccccc2)oc2ccccc12 [Flavone]
activity at 20 µM [1, 3]: 103% | activity at 20 µM [2]: 158%

COc1cc(C=O)ccc1O [Vanillin, vanillin]
activity at 20 µM [1, 6]: 89%
